Test results as given in PubChem BioAssay AID330 (DTP/NCI, 2004).
Where “and” joins values, the source holds several entries; their conditions need not be identical. Equal values may be shown once. Toxic doses and inconclusive results are not listed.

System: P388 leukemia ip, CD2F1 mice, survival T/C
Assay: NCI In Vivo Anticancer Drug Screen. Data for tumor model P388 Leukemia (intraperitoneal) in CD2F1 (CDF1) mice
Conditions: endpoint: median survival time, higher = longer survival
Outline: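 Mice carrying the transplanted tumor received test compound or vehicle. Survival was recorded in each group, and the value is the treated-group measurement divided by that of the vehicle-treated control group.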

[1] = dose: 100.0 mg/kg/injection, schedule: Q04DX003 (ip), vehicle: saline with Tween-80
[2] = dose: 200.0 mg/kg/injection, schedule: Q04DX003 (ip), vehicle: saline with Tween-80
[3] = dose: 400.0 mg/kg/injection, schedule: Q04DX003 (ip), vehicle: saline with Tween-80
[4] = dose: 12.5 mg/kg/injection, schedule: Q01DX009 (ip), vehicle: saline with Tween-80
[5] = dose: 25.0 mg/kg/injection, schedule: Q01DX009 (ip), vehicle: saline with Tween-80
[6] = dose: 50.0 mg/kg/injection, schedule: Q01DX009 (ip), vehicle: saline with Tween-80
[7] = dose: 100.0 mg/kg/injection, schedule: Q01DX009 (ip), vehicle: saline with Tween-80
[8] = dose: 50.0 mg/kg/injection, schedule: Q01DX005 (ip), vehicle: saline with Tween-80
[9] = dose: 100.0 mg/kg/injection, schedule: Q01DX005 (ip), vehicle: saline with Tween-80
[10] = dose: 200.0 mg/kg/injection, schedule: Q01DX005 (ip), vehicle: saline with Tween-80
[11] = dose: 200.0 mg/kg/injection, schedule: Q01DX009 (ip), vehicle: saline with Tween-80
[12] = dose: 50.0 mg/kg/injection, schedule: Q01DX005 (ip), vehicle: Klucel (hydroxypropylcellulose) (HPC)
[13] = dose: 100.0 mg/kg/injection, schedule: Q01DX005 (ip), vehicle: Klucel (hydroxypropylcellulose) (HPC)
[14] = dose: 50.0 mg/kg/injection, schedule: Q01DX009 (ip), vehicle: saline
[15] = dose: 100.0 mg/kg/injection, schedule: Q01DX009 (ip), vehicle: saline
[16] = dose: 200.0 mg/kg/injection, schedule: Q01DX009 (ip), vehicle: saline
[17] = dose: 60.0 mg/kg/injection, schedule: Q01DX005 (ip), vehicle: saline with Tween-80
[18] = dose: 120.0 mg/kg/injection, schedule: Q01DX005 (ip), vehicle: saline with Tween-80
[19] = dose: 240.0 mg/kg/injection, schedule: Q01DX005 (ip), vehicle: saline with Tween-80

With C=CCCn1nnc(-c2ccccc2)n1 the T/C (dose: 25.0 mg/kg/injection, schedule: Q04DX003 (ip), vehicle: saline with Tween-80) was 102 % of control, the T/C (dose: 50.0 mg/kg/injection, schedule: Q04DX003 (ip), vehicle: saline with Tween-80) was 96 % of control and the T/C [1] was 100 % of control. The T/C [2] was 104 % of control and 105 % of control and the T/C [3] was 94 % of control.
For c1cc2c(cn1)Sc1cnccc1N2, the T/C (dose: 6.25 mg/kg/injection, schedule: Q01DX009 (ip), vehicle: distilled water + Tween-80) was 90 % of control and the T/C (dose: 25.0 mg/kg/injection, schedule: Q01DX009 (ip), vehicle: distilled water + Tween-80) was 107 % of control.
COc1n[n+]([O-])c(Cl)cc1[N+](=O)[O-] was tested, and the T/C [4] was 109 % of control, the T/C [5] was 108 % of control and the T/C [6] was 117 % of control. The T/C [7] was 113 % of control.
With O=C(OC(C(=O)O)C(OC(=O)c1ccccc1)C(=O)O)c1ccccc1 (stereo not drawn) the T/C [8] was 106 % of control, the T/C [9] was 99 % of control and the T/C [10] was 98 % of control.
O=[N+]([O-])c1cc(S(=O)(=O)NCc2ccco2)ccc1N/N=C/c1ccccn1 was tested, and the T/C [11] was 86 % of control.
O=C(NC(Cc1ccccc1)C(=O)O)OCC1c2ccccc2-c2ccccc21 (stereo not drawn) was tested, and the T/C [12] was 108 % of control and the T/C [13] was 105 % of control.
CSc1cccc(NC(=O)OCCOc2ccc(-c3ccccc3)cc2)c1 was tested, and the T/C (dose: 100.0 mg/kg/injection, schedule: Q01DX009 (ip), vehicle: Klucel (hydroxypropylcellulose) (HPC)) was 87 % of control.
With CCCCCCC(=O)/C=C/c1ccccc1OC(=O)/C=C/c1ccccc1 the T/C (dose: 50.0 mg/kg/injection, schedule: Q01DX005 (ip), vehicle: saline + alcohol) was 96 % of control and the T/C (dose: 100.0 mg/kg/injection, schedule: Q01DX005 (ip), vehicle: saline + alcohol) was 92 % of control.
For COc1cccc(-c2ccncc2)c1, the T/C [8] was 102 % of control, the T/C [9] was 93 % of control and the T/C [10] was 93 % of control.
For COc1ccc2c(c1OC)C1=C(C2=O)c2cc3c(cc2CCN1)OCO3, the T/C (dose: 50.0 mg/kg/injection, schedule: Q01DX005 (ip), vehicle: saline + Tween-80 + alcohol) was 102 % of control, the T/C (dose: 100.0 mg/kg/injection, schedule: Q01DX005 (ip), vehicle: saline + Tween-80 + alcohol) was 100 % of control and the T/C (dose: 200.0 mg/kg/injection, schedule: Q01DX005 (ip), vehicle: saline + Tween-80 + alcohol) was 102 % of control.
N#C/C(=C\c1cccnc1)C(N)=S was tested, and the T/C [14] was 101 % of control, the T/C [15] was 88 % of control and the T/C [16] was 104 % of control.
COP(=O)(CC(=O)CCCCCO)OC was tested, and the T/C (dose: 60.0 mg/kg/injection, schedule: Q01DX005 (ip), vehicle: saline) was 114 % of control, the T/C (dose: 120.0 mg/kg/injection, schedule: Q01DX005 (ip), vehicle: saline) was 107 % of control and the T/C (dose: 240.0 mg/kg/injection, schedule: Q01DX005 (ip), vehicle: saline) was 107 % of control.
For Cc1ccc(N=CN(C)C)c(Cl)c1, the T/C (dose: 12.5 mg/kg/injection, schedule: Q04DX003 (ip), vehicle: Klucel (hydroxypropylcellulose) (HPC)) was 103 % of control and the T/C (dose: 25.0 mg/kg/injection, schedule: Q04DX003 (ip), vehicle: Klucel (hydroxypropylcellulose) (HPC)) was 101 % of control.
In the case of CCN=C1NS(=O)(=O)c2ccccc21, the T/C [8] is reported as 100 % of control, the T/C [9] is reported as 97 % of control and the T/C [10] is reported as 100 % of control.
In the case of O=C1c2ccccc2C(=O)N1Cc1ccccc1Br, the T/C [12] is reported as 103 % of control, the T/C [13] is reported as 101 % of control and the T/C (dose: 200.0 mg/kg/injection, schedule: Q01DX005 (ip), vehicle: Klucel (hydroxypropylcellulose) (HPC)) is reported as 100 % of control.
In the case of N#C/C(=C/c1ccc(Cl)cc1)C(=O)NC(N)=O, the T/C (dose: 100.0 mg/kg/injection, schedule: Q04DX002 (ip), vehicle: saline) is reported as 100 % of control, the T/C (dose: 200.0 mg/kg/injection, schedule: Q04DX002 (ip), vehicle: saline) is reported as 105 % of control and the T/C (dose: 400.0 mg/kg/injection, schedule: Q04DX002 (ip), vehicle: saline) is reported as 107 % of control.
In the case of C=C1C(=O)OCC1C(=O)OCC (stereo not drawn), the T/C [1] is reported as 103 % of control, the T/C [2] is reported as 107 % of control and the T/C [3] is reported as 98 % of control.
For NC(=S)N/N=C\C12CC3CC(CC(C3)C1)C2, the T/C [6] was 96 % of control and the T/C [7] was 108 % of control.
For CC(=O)NC1C([Se][As](C)C)OC(COC(C)=O)C(OC(C)=O)C1OC(C)=O (stereo not drawn), the T/C (dose: 6.25 mg/kg/injection, schedule: Q01DX009 (ip), vehicle: saline with Tween-80) was 122 % of control and the T/C [4] was 116 % of control.
For CCOc1cc2c(cc1Cc1ccc(OC)cc1OC)OCO2, the T/C [17] was 104 % of control and 107 % of control and 112 % of control, the T/C [18] was 102 % of control and 107 % of control and the T/C [19] was 111 % of control and 123 % of control. The T/C (dose: 480.0 mg/kg/injection, schedule: Q01DX005 (ip), vehicle: saline with Tween-80) was 118 % of control.
For CCc1c(-c2ccccc2)nc(N(C)C)oc1=O, the T/C [17] was 106 % of control, the T/C [18] was 100 % of control and the T/C [19] was 98 % of control.
In the case of CCOC(=O)CCC(C)(C#N)c1ccccc1 (stereo not drawn), the T/C [4] is reported as 94 % of control, the T/C [5] is reported as 99 % of control and the T/C [6] is reported as 103 % of control. The T/C [7] was 87 % of control.
With COc1cc2c(cc1OC)C1C(=O)c3ccc4c(c3OC1CO2)CC(C(C)(O)CO)O4 (stereo not drawn) the T/C (dose: 10.0 mg/kg/injection, schedule: Q01DX005 (ip), vehicle: DMSO) was 108 % of control and the T/C (dose: 20.0 mg/kg/injection, schedule: Q01DX005 (ip), vehicle: DMSO) was 107 % of control.
c1ccc2cc3c(cc2c1)Cn1c-3nc2ccccc21 was tested, and the T/C [2] was 92 % of control and the T/C [3] was 100 % of control.
N#Cc1ncc(C[P+](c2ccccc2)(c2ccccc2)c2ccccc2)nc1N was tested, and the T/C [4] was 91 % of control, the T/C [5] was 94 % of control and the T/C [6] was 95 % of control.
In the case of OCC(O)C(O)C(O)/C=N\O (stereo not drawn), the T/C [14] is reported as 98 % of control, the T/C [15] is reported as 105 % of control and the T/C [16] is reported as 98 % of control.
With CC1=NN(C(=O)c2ccccc2)C(=O)C1N=Nc1ccc(Cl)cc1 (stereo not drawn) the T/C (dose: 100.0 mg/kg/injection, schedule: Q01DX001 (ip), vehicle: saline with Tween-80) was 94 % of control, the T/C (dose: 200.0 mg/kg/injection, schedule: Q01DX001 (ip), vehicle: saline with Tween-80) was 94 % of control and the T/C (dose: 400.0 mg/kg/injection, schedule: Q01DX001 (ip), vehicle: saline with Tween-80) was 88 % of control.
For Nc1ncnc2c1ccn2COCCOP(=O)(O)O, the T/C (dose: 50.0 mg/kg/injection, schedule: Q01DX005 (ip), vehicle: distilled water + alcohol) was 105 % of control, the T/C (dose: 100.0 mg/kg/injection, schedule: Q01DX005 (ip), vehicle: distilled water + alcohol) was 100 % of control and the T/C (dose: 200.0 mg/kg/injection, schedule: Q01DX005 (ip), vehicle: distilled water + alcohol) was 98 % of control.
O=C([O-])[O-].O=[N+]([O-])O.[Co+3].[NH2-].[NH2-].[NH2-].[NH2-] was tested, and the T/C [7] was 122 % of control, the T/C [11] was 113 % of control and the T/C (dose: 400.0 mg/kg/injection, schedule: Q01DX009 (ip), vehicle: saline with Tween-80) was 100 % of control.
For CC(=O)SC1(C(C(N)=S)c2ccccc2)CCN(C)CC1 (stereo not drawn), the T/C (dose: 50.0 mg/kg/injection, schedule: Q01DX005 (ip), vehicle: saline) was 105 % of control, the T/C (dose: 100.0 mg/kg/injection, schedule: Q01DX005 (ip), vehicle: saline) was 111 % of control and the T/C (dose: 200.0 mg/kg/injection, schedule: Q01DX005 (ip), vehicle: saline) was 101 % of control.
O=C1CSC(=S)N1c1ccc(Cl)c([N+](=O)[O-])c1 was tested, and the T/C (dose: 25.0 mg/kg/injection, schedule: Q01DX009 (ip), vehicle: saline) was 101 % of control, the T/C [14] was 104 % of control and 111 % of control and 92 % of control and the T/C [15] was 99 % of control and 100 % of control. For the same compound, the T/C (dose: 100.0 mg/kg/injection, schedule: Q01DX009 (ip), vehicle: suspension in saline) was 117 % of control, the T/C [16] was 102 % of control and 108 % of control and the T/C (dose: 200.0 mg/kg/injection, schedule: Q01DX009 (ip), vehicle: suspension in saline) was 86 % of control.
In the case of C/[N+]([O-])=C/c1ncc([N+](=O)[O-])n1CCO, the T/C [14] is reported as 102 % of control, the T/C [15] is reported as 107 % of control and the T/C [16] is reported as 98 % of control.
For CCOC(=O)C(C(=O)OCC)=C(C)/C=C/C(Cl)(Cl)Cl, the T/C (dose: 100.0 mg/kg/injection, schedule: Q04DX002 (ip), vehicle: saline with Tween-80) was 110 % of control, the T/C (dose: 200.0 mg/kg/injection, schedule: Q04DX002 (ip), vehicle: saline with Tween-80) was 102 % of control and the T/C (dose: 400.0 mg/kg/injection, schedule: Q04DX002 (ip), vehicle: saline with Tween-80) was 98 % of control.
With COc1cc(Br)c(CC(NC=O)c2ccc(OC)c(OC)c2OC)cc1OC (stereo not drawn) the T/C [17] was 107 % of control, the T/C [18] was 100 % of control and the T/C [19] was 100 % of control.
